Source: patent US9573907B2, “2, 4-pyrimidine derivatives and use thereof” (SNU R&DB FOUNDATION, priority 2009, dated 2017)
“Also recorded” adds a separate entry of the source.

What was measured:
[1] = biological target: T1, gp96 M738L (Homo sapiens, UniProt P14625, M742L); assay: Surface plasmon resonance, GPM1 binding to gp96 mutant M738L
T1 construct: made in house; host or cells: Escherichia coli BL21 (DE3)
Procedure: (§1) Human gp96 was expressed as His tag fusion protein in Escherichia coli BL21 (DE3) and purified by nickel affinity chromatography. His-tagged human gp96 was immobilized onto CM5 sensor chips using standard amine coupling2. PBS was used as a running buffer. The carboxymethyl dextran surface within one side of the flow cell was activated with a 7-min injection of a 1:1 ratio of 0.4M EDC and 0.1M NHS. The protein was coupled to the surface with a 7-min injection of gp96 diluted in 10 mM sodium acetate, pH 3.7. Remaining activated groups were blocked with a 7-min injection of 1.0M ethanolamine, pH 8.5. GPM1 compound was dissolved directly in the PBS running buffer containing 1% DMSO and injected at a flow rate of 20 μl/min at 25° C. and the binding was determined by the change in resonance units (RU). The compound concentration varied from 10 nM to 25 μM and each concentration was tested at least three times. All of the bound complexes dissociated back to baseline within a reasonable time frame. Therefore, no regeneration was required. Sensorgram was processed by subtracting the binding response recorded from the control surface, followed by subtracting an average of the buffer blank injections from the reaction spot. To determine kinetic rate constants, all data sets were fit to a simple 1:1 binding with drifting baseline model using BIAevaluation program.
The present inventors compared the dose-dependent effect of GPM1 and NC1 on the interaction of gp96 and AIMP1 using ELISA. […] The present inventors monitored the binding kinetics of GPM1 to gp96 or AIMP1 by surface plasmon resonance (SPR) using BIAcore 3000. […] To further define the GPM1 binding region of gp96 (Han, J. M., Park, S. G., Liu, B., Park, B. J., Kim, J. Y., Jin, C. H., Song, Y. W., Li, Z. & Kim, S. Am. J. Pathol. 170, 2042-2054 (2007)), the present inventors introduced point mutations at L707, V706, V712, L713, F714, Y731 and M738 that are located within AIMP1 binding region of gp96 and monitored how the mutations at these sites would affect the binding of GPM1 to gp96 using SPR method.

[2] = biological target: T2, gp96 (Homo sapiens, UniProt P14625); assay: ATPase activity of gp96 (ATPase assay kit); assay type: biochemical; details: 0 vs. 100 μM
T2 sequence (P14625 22-803): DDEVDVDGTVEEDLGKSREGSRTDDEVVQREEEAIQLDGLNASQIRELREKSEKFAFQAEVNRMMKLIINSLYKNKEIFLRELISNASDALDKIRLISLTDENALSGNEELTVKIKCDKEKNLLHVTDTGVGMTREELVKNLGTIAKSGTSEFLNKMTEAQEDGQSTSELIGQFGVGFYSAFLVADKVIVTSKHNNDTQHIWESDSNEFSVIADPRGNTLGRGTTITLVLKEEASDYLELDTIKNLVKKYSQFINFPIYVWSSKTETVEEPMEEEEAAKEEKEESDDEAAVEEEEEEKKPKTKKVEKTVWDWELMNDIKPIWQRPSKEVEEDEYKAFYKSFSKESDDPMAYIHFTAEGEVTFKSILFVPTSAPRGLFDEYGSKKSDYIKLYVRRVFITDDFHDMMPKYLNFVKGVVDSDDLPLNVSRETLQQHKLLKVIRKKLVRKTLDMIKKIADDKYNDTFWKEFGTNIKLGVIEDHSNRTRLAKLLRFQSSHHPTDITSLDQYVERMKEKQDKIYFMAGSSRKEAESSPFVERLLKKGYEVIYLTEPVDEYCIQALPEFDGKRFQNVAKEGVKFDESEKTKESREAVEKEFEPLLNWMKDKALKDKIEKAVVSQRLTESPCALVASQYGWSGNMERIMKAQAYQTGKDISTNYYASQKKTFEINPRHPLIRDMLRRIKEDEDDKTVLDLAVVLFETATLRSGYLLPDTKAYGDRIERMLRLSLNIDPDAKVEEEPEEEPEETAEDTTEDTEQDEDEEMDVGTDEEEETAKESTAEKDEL
Procedure: FIG. 22 represents the effect of point mutations on the ATPase activity of gp96. (a) The effect of gp96 point mutations on its ATPase activity was examined using ATPase assay kit (Innova Biosciences, Cambridge, UK). One unit is the amount of enzyme that catalyzes the reaction of 1 μmol of substrate per minute. The enzymatic activity was calculated according to manufacturer's instruction.
FIG. 23 represents the effect of GPM1 on the ATPase activity gp96. (a) The dose-dependent effect of GPM1 on the ATPase activity.

[3] = test system: cell surface gp96 of splenocytes isolated from C57BL/6 mice; assay: Flow cytometry of cell surface gp96 on splenocytes; assay type: cell-based; details: 10 μM, 24 h
Procedure: FIGS. 1 to 9 represent suppression of cell surface gp96 by GPM1 reduces DC maturation and B220^+ population in gp96tm transgenic mice. (FIG. 1) Chemical structure of GPM1 (Formula 2) and negative control (NC1, Formula 16) used in this study. (FIG. 2) The dose-dependent effect of GPM1 or NC1 on the AIMP1-gp96 interaction using ELISA method as described. The indicated concentrations of the two compounds and biotin-conjugated murine gp96 were added to AIMP1 coated on the surface of microtiter wells, and gp96 bound to AIMP1 was detected with strepavidin-conjugated peroxidase. (FIG. 3) The binding of GPM1 to gp96 was examined by surface plasmon resonance (SPR). GPM1 at the indicated concentrations was injected to immobilized gp96 and the binding was measured using Biacore 3000. The response data were processed using data from a reference surface and buffer injections. Each concentration was tested in triplicate. (FIG. 4) RAW24.7 cells were treated with 10 μM GPM1 for 24 h. Cell lysates were immunoprecipitated with control IgG or anti-gp96 antibody and the immunoprecipitated proteins were immunoblotted with anti-KDELR1, antiAIMP1 and gp96 antibodies. WCL means whole cell lysate. […] TNFα secreted from BMDCs was quantified by ELISA. […]

[4] = test system: NZB/W F1 mouse; assay: Survival rate of a lupus animal model; assay type: in vivo; details: 30 mg/kg intraperitoneally once a day, 25-week aged male mice
Procedure: An NZB/W F1 mouse is a lupus animal model showing a voluntary lupus symptom. On the animal model, the effect of 2,4-pyrimidine derivatives was tested.
Each group included 10, 25-week aged male NZB/W F1 mice. Each group was intraperiotneally administered with a control (5% DMSO solution) or a testing agent (2,4-pyrimidine derivative in a dose of 30 mg/kg) once a day. Except for mice which died by worsening of lupus symptoms, the ratio of surviving mice was analyzed.

[5] = biological target: T2, gp96; assay: Surface plasmon resonance, GPM1 binding to gp96 WT; design: made in house; host or cells: Escherichia coli BL21 (DE3)
Procedure: as §1

T1 sequence (P14625 22-803 M742L): as the sequence (P14625 22-803) above, with M721L counted along it

COC(=O)[C@@H](Oc1nc(OC)cc(OC)n1)C(C)C [GPM1, (S)-methyl 2-(4,6-dimethoxypyrimidin-2-yloxy)-3-methylbutanoate]
Kd [1]: 210 nM | koff (dissociation rate constant) [1]: 0.0132 s⁻¹ | kon ([1]; read-out: Ka): 63000 M⁻¹ s⁻¹ | effect on the gp96 ATPase activity [2]: little effect; also recorded: did not affect | surface gp96 of mouse splenocytes [3]: decreased | ratio of mice which died by lupus [4]: significantly reduced | Kd [5]: 87.9 nM | koff (dissociation rate constant) [5]: 0.0154 s⁻¹ | kon ([5]; read-out: Ka): 175000 M⁻¹ s⁻¹
